Patent US11198687B2, “Heteroaryl allosteric modulators of nicotinic acetylcholine receptors” (Merck Sharp & Dohme Corp., priority 2017, dated 2021)
Like-named read-outs stand apart in the source and are kept apart here.

Target: human α7 nAChR (Homo sapiens, UniProt P36544)
Assay: Automated patch-clamp electrophysiology functional assay (Assay A)
Assay type: cell-based
Settings: IonFlux HT whole-cell population patch, HEK cell line stably expressing human RIC-3 and human α7, 40 μM acetylcholine
Description: The α7 nAChR positive allosteric modulator (PAM) activity of the present compounds may be tested using assays known in the art. […] The assay was performed using the IonFlux HT in a whole-cell, population patch configuration. See Golden et al. Assay Drug Dev. Technol. (2011) 9:608-619. The compounds were assessed for their ability to modulate the function of the human α7 nAChR stably expressed in a HEK cell line both in the presence, and in the absence of the natural α7 agonist acetylcholine. By performing a series of such measurements at different concentrations, the effective concentration of the α7 nAChR PAMs (EC50) was determined. See Spencer et al. Assay Drug Dev. Technol. (2012) 10:313-324.
Direct activation of α7 (agonism), and potentiation of acetylcholine-evoked α7 currents was determined as follows:
Automated Patch-Clamp Electrophysiology Functional Assay (Assay A)
Automated patch-clamp electrophysiology was performed using the IonFlux HT (Fluxion Biosciences Inc., San Francisco, Calif.) in the whole-cell, population patch configuration. Test compounds were assessed for their ability to modulate the function of the α7 nicotinic acetylcholine receptor both in the presence, and in the absence of the natural α7 agonist acetylcholine. A HEK cell line stably expressing both human RIC-3 and human α7 (PrecisION hnAChR α7/RIC-3, Eurofins Pharma, St. Charles, Mo.) was cultured in 175 cm^2 triple-layer tissue culture flasks to no more than 90% confluency in DMEM/F-12 growth media supplemented with 10% heat-inactivated fetal bovine serum, 1% non-essential amino acids, 0.625 μg/mL Puromycin, and 400 μg/mL Geneticin. Immediately prior to assay, cells were detached by first aspirating growth media, rinsing with Dulbecco's phosphate buffered saline, and then adding 10 mL of Accutase (Innovative Cell Technologies, San Diego, Calif.) to the flask and then incubating at 37° C. for 5 minutes. Detached cells were then recovered by the addition of 40 mL of CHO-serum-free media supplemented with 25 mM HEPES, and rocked gently in a 50 mL conical tube for 20 minutes prior to patch-clamp assay. […] The cell suspension was added to the cell inlet wells on an IonFlux HT population patch plate which had previously been rinsed and primed with deionized H2O. Test compounds were serially diluted in DMSO and then resuspended to the final test concentration in external recording solution, with, or without 40 μM acetylcholine added to the external recording solution; test compounds were then transferred to the lonFlux HT population patch plate. Internal recording solution (110 mM TrisPO4, 28 mM TrisBase, 0.1 mM CaCl2, 2 mM MgCl2, 11 mM EGTA, 4 mM MgATP) was added to the internal recording solution inlet wells on the IonFlux HT patch plate previously loaded with cells and test compounds, and the plate loaded into the IonFlux HT instrument. A protocol was executed on the IonFlux HT to trap the cells, break into the cells, and establish the whole-cell recording configuration; cells were voltage-clamped at a holding potential of −60 mV for the duration of the experiment, all experiments were conducted at room temperature, and the IonFlux HT injection pressure was 8 psi for solution applications. Upon establishing the whole-cell configuration, external recording solution was perfused into the recording chambers for 120 seconds and then 40 μM acetylcholine was applied for 1 second and immediately washed off with external recording solution for 60 seconds. The 40 μM acetylcholine-evoked α7 current served as the current response to which subsequent test compound effects, in the presence, or in the absence of 40 μM acetylcholine would be quantified relative to. Next, test compounds were evaluated at multiple concentrations for their ability to induce, or modulate α7 current responses; three concentrations of test compound were evaluated in ascending dose fashion per recording.

human α7 nAChR, sequence (P36544 23-502): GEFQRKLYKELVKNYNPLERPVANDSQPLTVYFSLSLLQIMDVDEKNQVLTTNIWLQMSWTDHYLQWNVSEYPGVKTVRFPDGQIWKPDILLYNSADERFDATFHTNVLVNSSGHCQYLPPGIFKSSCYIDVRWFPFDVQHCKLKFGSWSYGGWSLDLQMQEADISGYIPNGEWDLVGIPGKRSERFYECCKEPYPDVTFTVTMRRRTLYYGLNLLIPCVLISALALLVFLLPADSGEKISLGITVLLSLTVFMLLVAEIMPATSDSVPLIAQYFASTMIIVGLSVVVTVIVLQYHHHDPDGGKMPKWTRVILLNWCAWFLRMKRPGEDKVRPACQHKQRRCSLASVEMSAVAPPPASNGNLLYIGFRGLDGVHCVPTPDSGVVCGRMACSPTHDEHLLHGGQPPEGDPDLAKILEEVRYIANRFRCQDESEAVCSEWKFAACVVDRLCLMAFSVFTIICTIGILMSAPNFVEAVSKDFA

EC50 (read-out: α7 nAChR Potency) [nM]	EC50 (read-out: α7 nAChR EC50) [nM]	SMILES
500 to 5000	–	CC1(C)[C@H](c2ccc(S(N)(=O)=O)nc2)[C@H]1c1nc(-c2cccc(C(F)(F)F)c2)no1 [Example A10, 5-[(1R,3R)-2,2-Dimethyl-3-{3-[3-(trifluoromethyl)phenyl]-1,2,4-oxadiazol-5-yl}cyclopropyl]pyridine-2-sulfonamide]
500 to 5000	3000	CC1(C)[C@H](c2ccc(S(N)(=O)=O)nc2)[C@H]1c1nc(C2CC(F)(F)C2)no1 [Example A11, 5-{(1R,3R)-3-[3-(3,3-Difluorocyclobutyl)-1,2,4-oxadiazol-5-yl]-2,2-dimethylcyclopropyl}pyridine-2-sulfonamide]
500 to 5000	–	CC1(C)[C@H](c2ccc(S(N)(=O)=O)nc2)[C@H]1c1nc(C2CCC2)no1 [Example A12, 5-[(1R,3R)-3-(3-Cyclobutyl-1,2,4-oxadiazol-5-yl)-2,2-dimethylcyclopropyl]pyridine-2-sulfonamide]
500 to 5000	–	CC1(C)[C@H](c2ccc(S(N)(=O)=O)nc2)[C@H]1c1nc(CC2CC2)no1 [Example A13, 5-{(1R,3R)-3-[3-(Cyclopropylmethyl)-1,2,4-oxadiazol-5-yl]-2,2-dimethylcyclopropyl}pyridine-2-sulfonamide]
500 to 5000	570	CC(C)c1noc([C@@H]2[C@@H](c3ccc(S(N)(=O)=O)nc3)C2(C)C)n1 [Example A14, 5-{(1R,3R)-2,2-Dimethyl-3-[3-(propan-2-yl)-1,2,4-oxadiazol-5-yl]cyclopropyl}pyridine-2-sulfonamide]
500 to 5000	1600	CC1(C)[C@H](c2ccc(S(N)(=O)=O)nc2)[C@H]1c1ncc(-c2ccccc2)o1 [Example A15, 5-[(1R,3R)-2,2-Dimethyl-3-(5-phenyl-1,3-oxazol-2-yl)cyclopropyl]pyridine-2-sulfonamide]
100 to 500	310	CC1(C)[C@@H](c2ccc(S(N)(=O)=O)nc2)[C@@H]1c1nc(-c2cccc(F)c2)no1 [Example B1, 5-{(1S,3S)-3-[3-(3-Fluorophenyl)-1,2,4-oxadiazol-5-yl]-2,2-dimethylcyclopropyl}pyridine-2-sulfonamide]
500 to 5000	1700	COc1ccc(Cl)cc1-c1noc([C@H]2[C@H](c3ccc(S(N)(=O)=O)nc3)C2(C)C)n1 [Example B2, 5-{(1S,3S)-3-[3-(5-Chloro-2-methoxyphenyl)-1,2,4-oxadiazol-5-yl]-2,2-dimethylcyclopropyl}pyridine-2-sulfonamide]
500 to 5000	–	CC1(C)[C@@H](c2ccc(S(N)(=O)=O)nc2)[C@@H]1c1nc(-c2ccc(F)cc2F)no1 [Example B3, 5-{(1S,3S)-3-[3-(2,4-Difluorophenyl)-1,2,4-oxadiazol-5-yl]-2,2-dimethylcyclopropyl}pyridine-2-sulfonamide]
500 to 5000	2500	CC1(C)[C@@H](c2ccc(S(N)(=O)=O)nc2)[C@@H]1c1nc(-c2cncc(C(F)(F)F)c2)no1 [Example B4, 5-[(1S,3S)-2,2-Dimethyl-3-{3-[5-(trifluoromethyl)pyridin-3-yl]-1,2,4-oxadiazol-5-yl}cyclopropyl]pyridine-2-sulfonamide]
500 to 5000	3000	CC1(C)[C@@H](c2ccc(S(N)(=O)=O)nc2)[C@@H]1c1nc(-c2cccc(C(F)(F)F)c2)no1 [Example B5, 5-[(1S,3S)-2,2-Dimethyl-3-{3-[3-(trifluoromethyl)phenyl]-1,2,4-oxadiazol-5-yl}cyclopropyl]pyridine-2-sulfonamide]
100 to 500	–	CC1(C)[C@@H](c2ccc(S(N)(=O)=O)nc2)[C@@H]1c1nc(C2CCCCC2)no1 [Example B6, 5-[(1S,3S)-3-(3-Cyclohexyl-1,2,4-oxadiazol-5-yl)-2,2-dimethylcyclopropyl]pyridine-2-sulfonamide]
100 to 500	370	CC1(C)[C@@H](c2ccc(S(N)(=O)=O)nc2)[C@@H]1c1nc(C2CCCC2)no1 [Example B7, 5-[(1S,3S)-3-(3-Cyclopentyl-1,2,4-oxadiazol-5-yl)-2,2-dimethylcyclopropyl]pyridine-2-sulfonamide]
